Values joined by “and” are separate entries in the source; they are usually repeats but may differ in a detail not shown here. Equal entries are not always repeated.
Key:
[1] = molecular target: Glutamate receptor ionotropic, kainate 2 (Homo sapiens, UniProt Q13002)
[2] = molecular target: Glutamate receptor ionotropic, kainate 1 (Homo sapiens, UniProt P39086)
Sequence of Glutamate receptor ionotropic, kainate 1 (P39086 whole entry): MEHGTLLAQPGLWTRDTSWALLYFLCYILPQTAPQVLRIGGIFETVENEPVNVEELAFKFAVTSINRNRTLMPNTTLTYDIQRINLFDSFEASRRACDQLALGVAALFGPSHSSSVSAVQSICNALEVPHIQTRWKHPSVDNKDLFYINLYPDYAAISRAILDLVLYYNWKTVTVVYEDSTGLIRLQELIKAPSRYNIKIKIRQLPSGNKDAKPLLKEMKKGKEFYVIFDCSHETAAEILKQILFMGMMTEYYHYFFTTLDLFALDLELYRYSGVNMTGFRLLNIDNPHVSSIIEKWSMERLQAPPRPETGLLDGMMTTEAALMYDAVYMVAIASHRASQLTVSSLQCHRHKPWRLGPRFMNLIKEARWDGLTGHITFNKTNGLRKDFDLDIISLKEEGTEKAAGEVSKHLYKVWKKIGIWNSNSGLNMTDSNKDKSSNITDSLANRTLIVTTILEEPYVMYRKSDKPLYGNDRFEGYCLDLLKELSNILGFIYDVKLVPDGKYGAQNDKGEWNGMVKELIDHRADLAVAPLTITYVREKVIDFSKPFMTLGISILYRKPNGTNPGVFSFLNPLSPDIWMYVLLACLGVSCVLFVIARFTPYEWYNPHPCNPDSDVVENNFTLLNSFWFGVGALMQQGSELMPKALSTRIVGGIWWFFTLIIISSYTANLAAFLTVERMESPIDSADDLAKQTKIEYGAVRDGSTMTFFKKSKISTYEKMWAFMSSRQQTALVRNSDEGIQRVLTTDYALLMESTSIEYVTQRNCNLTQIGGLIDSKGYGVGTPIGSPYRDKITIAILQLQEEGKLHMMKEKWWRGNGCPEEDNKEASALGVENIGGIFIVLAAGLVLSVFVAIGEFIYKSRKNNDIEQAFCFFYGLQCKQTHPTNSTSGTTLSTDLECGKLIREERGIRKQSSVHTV

Sequence of Glutamate receptor ionotropic, kainate 2 (Q13002 whole entry): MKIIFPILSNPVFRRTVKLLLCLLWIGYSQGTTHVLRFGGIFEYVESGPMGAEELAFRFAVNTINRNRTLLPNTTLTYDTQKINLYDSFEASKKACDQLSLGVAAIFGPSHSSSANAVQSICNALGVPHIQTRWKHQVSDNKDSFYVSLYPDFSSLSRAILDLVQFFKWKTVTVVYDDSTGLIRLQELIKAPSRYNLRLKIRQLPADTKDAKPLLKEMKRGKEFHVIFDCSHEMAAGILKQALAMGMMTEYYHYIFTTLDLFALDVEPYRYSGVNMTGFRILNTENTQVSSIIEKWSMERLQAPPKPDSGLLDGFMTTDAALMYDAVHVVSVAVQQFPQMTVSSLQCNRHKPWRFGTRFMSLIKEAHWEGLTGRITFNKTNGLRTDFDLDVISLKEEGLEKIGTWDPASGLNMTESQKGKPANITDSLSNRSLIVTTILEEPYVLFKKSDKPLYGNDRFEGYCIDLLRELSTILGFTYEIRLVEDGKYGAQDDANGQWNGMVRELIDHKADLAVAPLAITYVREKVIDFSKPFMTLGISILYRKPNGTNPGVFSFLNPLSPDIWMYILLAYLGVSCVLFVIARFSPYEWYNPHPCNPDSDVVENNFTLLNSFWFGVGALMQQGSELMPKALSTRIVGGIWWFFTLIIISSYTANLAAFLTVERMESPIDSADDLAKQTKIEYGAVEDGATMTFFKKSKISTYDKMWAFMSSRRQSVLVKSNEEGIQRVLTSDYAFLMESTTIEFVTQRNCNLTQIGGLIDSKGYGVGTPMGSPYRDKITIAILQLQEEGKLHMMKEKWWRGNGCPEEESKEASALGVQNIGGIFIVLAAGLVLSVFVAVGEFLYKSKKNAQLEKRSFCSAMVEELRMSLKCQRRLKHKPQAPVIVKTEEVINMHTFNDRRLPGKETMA

Ki [1] [µM] | Ki [2] | SMILES
> 30 | > 10 µM and 1.6 µM | O=C(Nc1cc(NC(=O)c2ccccc2)c(C(=O)O)cc1C(=O)O)c1ccccc1 [NS3763]
> 10 | – | CN1CCc2c(-c3ccc(S(=O)(=O)N(C)C)cc3)cc3c(c2C1)NC(=O)/C3=N\OC(CCO)C(=O)O (stereo not drawn) [SPD 502]
